ChEMBL document CHEMBL1201862, “PubChem BioAssay data set” (2004)
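1) Cells in 96-well plates. 2) Compound, 48 h, 5 concentrations. 3) Linear interpolation between surrounding doses. 4) Unreached endpoint = highest concentration. GI50 is the concentration that inhibits growth by half.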 Calls of active or inactive are those of the source. No stated cut-off is given here; in the data, active = GI50 up to about 1.1 µM and inactive = higher.

Key:
Experiment in all cases: inhibition of tumour cell growth, NCI panel, 48 h
DMS-273 = system: DMS-273
NCI-H522 = system: NCI-H522
NCI-H460 = system: NCI-H460
UACC-257 = system: UACC-257
HT-29 = system: HT-29
OVCAR-5 = system: OVCAR-5
HOP-92 = system: HOP-92
SR = system: SR
A498 = system: A498
CCRF-CEM = system: CCRF-CEM
A549 = system: A549
MOLT-4 = system: MOLT-4
NCI-H23 = system: NCI-H23
HOP-62 = system: HOP-62
IGROV-1 = system: IGROV-1
OVCAR-8 = system: OVCAR-8
SF-295 = system: SF-295
RXF 393 = system: RXF 393
KM12 = system: KM12
SNB-78 = system: SNB-78
NCI-H226 = system: NCI-H226
U-251 = system: U-251
TK-10 = system: TK-10
ACHN = system: ACHN
HCT-116 = system: HCT-116
SK-MEL-28 = system: SK-MEL-28
SK-OV-3 = system: SK-OV-3
HL-60 = system: HL-60
DMS-114 = system: DMS-114
EKVX = system: EKVX
SNB-19 = system: SNB-19
M14 = system: M14
UO-31 = system: UO-31
HCC 2998 = system: HCC 2998
HCT-15 = system: HCT-15
OVCAR-3 = system: OVCAR-3
M19-MEL = system: M19-MEL
SF-539 = system: SF-539
LOX IMVI = system: LOX IMVI
RPMI-8226 = system: RPMI-8226
KM-20L2 = system: KM-20L2
SK-MEL-5 = system: SK-MEL-5
Malme-3M = system: Malme-3M
SW-620 = system: SW-620
CAKI-1 = system: CAKI-1
SK-MEL-2 = system: SK-MEL-2
COLO 205 = system: COLO 205
NCI/ADR-RES = system: NCI/ADR-RES
HOP-18 = system: HOP-18
OVCAR-4 = system: OVCAR-4
SNB-75 = system: SNB-75
MCF7 = system: MCF7
DLD-1 = system: DLD-1
K562 = system: K562
SN12C = system: SN12C
SF-268 = system: SF-268
UACC-62 = system: UACC-62

SMILES: CCN(CC)CSc1nc2ccccc2[nH]1
- GI50 (DMS-273): > 100 µM (inactive)
- GI50 (NCI-H522): > 100 µM (inactive)
- GI50 (NCI-H460): > 100 µM (inactive)
- GI50 (UACC-257): > 100 µM (inactive)
- GI50 (HT-29): > 100 µM (inactive)
- GI50 (OVCAR-5): > 100 µM (inactive)
- GI50 (HOP-92): > 100 µM (inactive)
- GI50 (SR): > 100 µM (inactive)
- GI50 (A498): > 100 µM (inactive)
- GI50 (CCRF-CEM): > 100 µM (inactive)
- GI50 (A549): > 100 µM (inactive)
- GI50 (MOLT-4): > 100 µM (inactive)
- GI50 (NCI-H23): > 100 µM (inactive)
- GI50 (HOP-62): > 100 µM (inactive)
- GI50 (IGROV-1): > 100 µM (inactive)
- GI50 (OVCAR-8): > 100 µM (inactive)
- GI50 (SF-295): > 100 µM (inactive)
- GI50 (RXF 393): > 100 µM (inactive)
- GI50 (KM12): > 100 µM (inactive)
- GI50 (SNB-78): > 100 µM (inactive)
- GI50 (NCI-H226): > 100 µM (inactive)
- GI50 (U-251): > 100 µM (inactive)
- GI50 (TK-10): > 100 µM (inactive)
- GI50 (ACHN): > 100 µM (inactive)
- GI50 (HCT-116): > 100 µM (inactive)
- GI50 (SK-MEL-28): > 100 µM (inactive)
- GI50 (SK-OV-3): > 100 µM (inactive)
- GI50 (HL-60): > 100 µM (inactive)
- GI50 (DMS-114): > 100 µM (inactive)
- GI50 (EKVX): > 100 µM (inactive)
- GI50 (SNB-19): > 100 µM (inactive)
- GI50 (M14): > 100 µM (inactive)
- GI50 (UO-31): > 100 µM (inactive)

SMILES: COc1cc([C@@H]2c3cc4c(cc3[C@@H](NCCCN(C)C)[C@H]3COC(=O)[C@H]23)OCO4)cc(OC)c1O
- GI50 (HCC 2998): 0.838 µM (active)
- GI50 (DMS-273): 0.164 µM (active)
- GI50 (HCT-15): 0.513 µM
- GI50 (OVCAR-3): 0.849 µM (active)
- GI50 (NCI-H522): 0.637 µM (active)
- GI50 (NCI-H460): 0.0232 µM (active)
- GI50 (M19-MEL): 0.53 µM (active)
- GI50 (HT-29): 0.916 µM (active)
- GI50 (SF-539): 0.376 µM (active)
- GI50 (LOX IMVI): 0.181 µM (active)
- GI50 (OVCAR-5): 1.15 µM (inactive)
- GI50 (CCRF-CEM): 0.098 µM (active)
- GI50 (A549): 0.142 µM (active)
- GI50 (MOLT-4): 0.0222 µM (active)
- GI50 (IGROV-1): 0.653 µM (active)
- GI50 (SF-295): 0.0995 µM (active)
- GI50 (KM12): 0.769 µM (active)
- GI50 (U-251): 0.242 µM (active)
- GI50 (RPMI-8226): 0.525 µM (active)
- GI50 (ACHN): 0.076 µM (active)
- GI50 (KM-20L2): 0.716 µM (active)
- GI50 (SK-MEL-5): 0.212 µM (active)
- GI50 (HCT-116): 0.658 µM (active)
- GI50 (Malme-3M): 0.379 µM (active)
- GI50 (SK-OV-3): 0.137 µM (active)
- GI50 (HL-60): 0.0582 µM (active)
- GI50 (SW-620): 0.346 µM (active)
- GI50 (EKVX): 0.745 µM (active)
- GI50 (SNB-19): 0.22 µM (active)
- GI50 (UO-31): 0.423 µM (active)

SMILES: COc1cc2c(cc1OC)-c1c3c(cc4c1[C@@H](C2)N(C)CC4)OCO3
- GI50 (HCC 2998): 9.35 µM (inactive)
- GI50 (DMS-273): 3.52 µM (inactive)
- GI50 (HCT-15): 5.77 µM
- GI50 (OVCAR-3): 13.6 µM (inactive)
- GI50 (CAKI-1): 6.01 µM (inactive)
- GI50 (NCI-H522): 6.7 µM (inactive)
- GI50 (NCI-H460): 2.53 µM (inactive)
- GI50 (UACC-257): 11.6 µM (inactive)
- GI50 (M19-MEL): 10.4 µM (inactive)
- GI50 (HT-29): 6.4 µM (inactive)
- GI50 (SF-539): 5.94 µM (inactive)
- GI50 (LOX IMVI): 3.78 µM (inactive)
- GI50 (OVCAR-5): 9.64 µM (inactive)
- GI50 (HOP-92): 6.78 µM (inactive)
- GI50 (SK-MEL-2): 10.9 µM (inactive)
- GI50 (A498): 4.69 µM (inactive)
- GI50 (COLO 205): 4.23 µM (inactive)
- GI50 (CCRF-CEM): 3.96 µM (inactive)
- GI50 (A549): 3.34 µM (inactive)
- GI50 (MOLT-4): 3.85 µM (inactive)
- GI50 (NCI-H23): 10.2 µM (inactive)
- GI50 (HOP-62): 3.57 µM (inactive)
- GI50 (IGROV-1): 9.62 µM (inactive)
- GI50 (NCI/ADR-RES): 5.62 µM (inactive)
- GI50 (OVCAR-8): 4.59 µM (inactive)
- GI50 (SF-295): 1.64 µM (inactive)
- GI50 (RXF 393): 8.04 µM (inactive)
- GI50 (KM12): 7.4 µM (inactive)
- GI50 (SNB-78): 11.6 µM (inactive)
- GI50 (NCI-H226): 7.06 µM (inactive)
- GI50 (U-251): 10.8 µM (inactive)
- GI50 (HOP-18): 18.2 µM (inactive)
- GI50 (RPMI-8226): 5.74 µM (inactive)
- GI50 (OVCAR-4): 8.26 µM (inactive)
- GI50 (SNB-75): 7.29 µM (inactive)
- GI50 (MCF7): 1.94 µM (inactive)
- GI50 (KM-20L2): 3.44 µM (inactive)
- GI50 (SK-MEL-5): 7.52 µM (inactive)
- GI50 (HCT-116): 2.87 µM (inactive)
- GI50 (SK-MEL-28): 12.2 µM (inactive)
- GI50 (Malme-3M): 9.14 µM (inactive)
- GI50 (DLD-1): 6 µM (inactive)
- GI50 (SK-OV-3): 12.1 µM (inactive)
- GI50 (K562): 5.36 µM (inactive)
- GI50 (HL-60): 7.26 µM (inactive)
- GI50 (DMS-114): 8.43 µM (inactive)
- GI50 (SN12C): 6.14 µM (inactive)
- GI50 (SW-620): 3.92 µM (inactive)
- GI50 (EKVX): 11.4 µM (inactive)
- GI50 (SNB-19): 5.74 µM (inactive)
- GI50 (SF-268): 7.69 µM (inactive)
- GI50 (UACC-62): 8.38 µM (inactive)
- GI50 (UO-31): 11.8 µM (inactive)
